# How the values were obtained:
# Assay in all cases: Cytotoxicity assay (Version 2, automated, AC50) with/without neutrophil elastase
# Conditions in all cases: Version 2, activity concentration at −50%
# 786-O = type: cell-based, human
# Method: (§1) Cultivation of cells was performed according to standard procedures with the media recommended by the provider. The cells, in a total volume of 100 μL, were seeded in a 96-well plate with a white bottom (#3610). After a 24 h incubation period at 37° C. and […], the medium was exchanged by adding 90 μL fresh medium. The treatment started by adding the test compound in 10 μL of culture medium to the cells in triplicates. Concentrations ranging from 10^−5 M to 10^−13 M were chosen. Two identically treated sets of samples were prepared. One set was treated with the test compound alone, whereas to the second set the compound and 10 nM elastase was added followed by a 72 h incubation period at 37° C. and […]. The proliferation was detected using the MTT assay (ATCC). At the end of the incubation period the MTT reagent was added to all samples for 4 h. Lysis of the cells followed by addition of the detergent was done overnight. The formed dye was detected at 570 nm. The proliferation of untreated but otherwise identically handled cells was define as the 100% value.
# (§2) The cytotoxicity assay (Version 2) was performed as described above. Some changes were applied as the assays were performed in an automated fashion and the IC50 values determination was changed. Here the change in metabolic activity of the cells, in percent, was calculated by normalization of the measured values to the absorbance values of medium containing wells without cells (═−100%) and the absorbance of the DMSO-treated cells (═0%). AC50 values (activity concentration at −50%) were determined by means of a 4 parameter Hill-fit using GeneData Screener software.
# HT29 = type: cell-based, human
# Method: as §1, §2
# NCI H292 = type: cell-based, human
# Method: as §1, §2
# SUM149 = type: cell-based
# Method: as §1, §2
# [1] = without (−) neutrophil elastase
# [2] = HT29, with (+) neutrophil elastase
# [3] = HT29, without (−) neutrophil elastase
# [4] = NCI H292, with (+) neutrophil elastase
# [5] = NCI H292, without (−) neutrophil elastase
# [6] = SUM149, with (+) neutrophil elastase
# [7] = SUM149, without (−) neutrophil elastase
SMILES,AC50 (786-O; with (+) neutrophil elastase) [µM],AC50 (786-O; [1]) [µM],AC50 (HT29; [2]) [µM],AC50 (HT29; [3]) [µM],AC50 (NCI H292; [4]) [µM],AC50 (NCI H292; [5]) [µM],AC50 (SUM149; [6]) [µM],AC50 (SUM149; [7]) [µM]
CCCNC(=O)Nc1cccc(S(=O)(=O)Nc2cccc([C@@H](CC(=O)O)NC(=O)Nc3ccc(NC(=O)NCCN(C)CCN(C)CCN(C)CC(=O)N[C@@H](CC(N)=O)C(=O)N4CCC[C@H]4C(=O)N[C@H](C(=O)N=S(C)(=O)Cc4cc5nc(c4)OCCCOc4cc(F)ccc4-c4cc(ncc4F)N5)C(C)C)cc3)c2)c1 (mixture of isomers) [Compound 22],≤ 0.01,0.1 to 1,≤ 0.01,0.1 to 1,≤ 0.01,0.1 to 1,≤ 0.01,0.1 to 1
CCCNC(=O)Nc1cccc(S(=O)(=O)Nc2cccc([C@H](CC(=O)O)NC(=O)Nc3ccc(NC(=O)NCCN(C)CCN(C)CCN(C)CC(=O)N[C@@H](CC(N)=O)C(=O)N4CCC[C@H]4C(=O)N[C@H](C(=O)N=S(C)(=O)Cc4cc5nc(c4)OCCCOc4cc(F)ccc4-c4cc(ncc4F)N5)C(C)C)cc3)c2)c1 (mixture of isomers) [Compound 23],≤ 0.01,0.1 to 1,≤ 0.01,0.1 to 1,≤ 0.01,0.1 to 1,≤ 0.01,0.1 to 1
"CCCNC(=O)Nc1cccc(S(=O)(=O)Nc2cccc([C@@H](CC(=O)O)NC(=O)Nc3ccc(NC(=O)NCCOCCOCCOCCC(=O)N[C@@H](CC(=O)O)C(=O)N4CCC[C@H]4C(=O)N[C@H](C(=O)N=[S@@](C)(=O)Cc4cc5nc(c4)OCCCOc4cc(F)ccc4-c4cc(ncc4F)N5)C(C)C)cc3)c2)c1 (racemic) [Compound 37, N-(14-{4-[({(1R)-2-carboxy-1-[3-({3-[(propylcarbamoyl)amino]benzene-1-sulfonyl}amino)phenyl]ethyl}carbamoyl)amino]anilino}-14-oxo-4,7,10-trioxa-13-azatetradecanan-1-oyl)-L-alpha-aspartyl-L-prolyl-N—[(RS)—{[15,19-difluoro-3,4-dihydro-2H,11H-10,6-(azeno)-12,16-(metheno)-1,5,11,13-benzodioxadiazacyclooctadecin-8-yl]methyl}(methyl)oxo-lambda^6-sulfanylidene]-L-valinamide]",≤ 0.01,0.1 to 1,≤ 0.01,0.1 to 1,≤ 0.01,0.1 to 1,≤ 0.01,0.1 to 1
CCCNC(=O)Nc1cccc(S(=O)(=O)Nc2cccc([C@@H](CC(=O)O)NC(=O)Nc3ccc(NC(=O)NCCOCCOCCOCCC(=O)NCCCC[C@H](NC(=O)CCOCCOCCOCCNC(=O)Nc4ccc(NC(=O)N[C@H](CC(=O)O)c5cccc(NS(=O)(=O)c6cccc(NC(=O)NCCC)c6)c5)cc4)C(=O)NCCN(C)CCN(C)CCN(C)CC(=O)N[C@@H](CC(N)=O)C(=O)N4CCC[C@H]4C(=O)N[C@H](C(=O)N=[S@@](C)(=O)Cc4cc5cc(c4)O[C@@H](C)CCOc4cc(F)ccc4-c4nc(ncc4F)N5)C(C)C)cc3)c2)c1 (relative stereo) [Compound 28],≤ 0.01,> 1,≤ 0.01,0.1 to 1,≤ 0.01,0.1 to 1,≤ 0.01,0.1 to 1
CCCNC(=O)Nc1cccc(S(=O)(=O)Nc2cccc([C@H](CC(=O)O)NC(=O)Nc3ccc(NC(=O)NCCOCCOCCOCCC(=O)NCCCC[C@H](NC(=O)CCOCCOCCOCCNC(=O)Nc4ccc(NC(=O)N[C@@H](CC(=O)O)c5cccc(NS(=O)(=O)c6cccc(NC(=O)NCCC)c6)c5)cc4)C(=O)NCCN(C)CCN(C)CCN(C)CC(=O)N[C@@H](CC(N)=O)C(=O)N4CCC[C@H]4C(=O)N[C@H](C(=O)N=[S@@](C)(=O)Cc4cc5cc(c4)O[C@@H](C)CCOc4cc(F)ccc4-c4nc(ncc4F)N5)C(C)C)cc3)c2)c1 (relative stereo) [Compound 29],≤ 0.01,> 1,≤ 0.01,0.1 to 1,≤ 0.01,0.1 to 1,≤ 0.01,0.1 to 1
CCCNC(=O)Nc1cccc(S(=O)(=O)Nc2cccc([C@@H](CC(=O)O)NC(=O)Nc3ccc(NC(=O)NCCOCCOCCOCCC(=O)NCCCC[C@H](NC(=O)CCOCCOCCOCCNC(=O)Nc4ccc(NC(=O)N[C@H](CC(=O)O)c5cccc(NS(=O)(=O)c6cccc(NC(=O)NCCC)c6)c5)cc4)C(=O)NCCOCCOCCOCCC(=O)N[C@@H](CC(=O)O)C(=O)N4CCC[C@H]4C(=O)N[C@H](C(=O)N=[S@](C)(=O)Cc4cc5cc(c4)O[C@H](C)CCOc4cc(F)ccc4-c4nc(ncc4F)N5)C(C)C)cc3)c2)c1 (relative stereo) [Compound 31],≤ 0.01,> 1,≤ 0.01,> 1,≤ 0.01,0.1 to 1,≤ 0.01,0.1 to 1
CCCNC(=O)Nc1cccc(S(=O)(=O)Nc2cccc([C@H](CC(=O)O)NC(=O)Nc3ccc(NC(=O)NCCOCCOCCOCCC(=O)N[C@@H](CCCCNC(=O)CCOCCOCCOCCNC(=O)Nc4ccc(NC(=O)N[C@H](CC(=O)O)c5cccc(NS(=O)(=O)c6cccc(NC(=O)NCCC)c6)c5)cc4)C(=O)NCCOCCOCCOCCC(=O)N[C@@H](CC(=O)O)C(=O)N4CCC[C@H]4C(=O)N[C@H](C(=O)N=S(C)(=O)Cc4cc5nc(c4)OCCCOc4cc(F)ccc4-c4cc(ncc4F)N5)C(C)C)cc3)c2)c1 (relative stereo) [Compound 32],≤ 0.01,0.1 to 1,≤ 0.01,> 1,≤ 0.01,0.1 to 1,≤ 0.01,0.1 to 1
CCCNC(=O)Nc1cccc(S(=O)(=O)Nc2cccc([C@@H](CC(=O)O)NC(=O)Nc3ccc(NC(=O)NCCOCCOCCOCCC(=O)N[C@@H](CC(=O)O)C(=O)N4CCC[C@H]4C(=O)N[C@H](C(=O)N=S(C)(=O)Cc4cc5cc(c4)OCCCCOc4cc(F)ccc4-c4nc(ncc4F)N5)C(C)C)cc3)c2)c1 (relative stereo) [Compound 36],0.011 to 0.1,0.1 to 1,0.011 to 0.1,0.1 to 1,0.011 to 0.1,0.1 to 1,0.011 to 0.1,0.1 to 1
"CCCNC(=O)Nc1cccc(S(=O)(=O)Nc2cccc([C@@H](CC(=O)O)NC(=O)Nc3ccc(NC(=O)NCCOCCOCCOCCC(=O)N[C@@H](CC(=O)O)C(=O)N4CCC[C@H]4C(=O)N[C@@H](C(=O)N=[S@@](C)(=O)Cc4cc5cc(c4)O[C@@H](C)CCOc4cc(F)ccc4-c4nc(ncc4F)N5)C(C)C)cc3)c2)c1 (relative stereo) [Compound 39, N-(14-{4-[({(1R)-2-carboxy-1-[3-({3-[(propylcarbamoyl)amino]benzene-1-sulfonyl}amino)phenyl]ethyl}carbamoyl)amino]anilino}-14-oxo-4,7,10-trioxa-13-azatetradecanan-1-oyl)-L-alpha-aspartyl-L-prolyl-N—[(R*)—{[(4R*)-15,19-difluoro-4-methyl-3,4-dihydro-2H,11H-12,16-(azeno)-10,6-(metheno)-1,5,11,13-benzodioxadiazacyclooctadecin-8-yl]methyl}(methyl)oxo-lambda^6-sulfanylidene]-D-valinamide]",≤ 0.01,0.1 to 1,≤ 0.01,0.1 to 1,≤ 0.01,0.1 to 1,≤ 0.01,0.1 to 1
CCCNC(=O)Nc1cccc(S(=O)(=O)Nc2cccc([C@@H](CC(=O)O)NC(=O)Nc3ccc(NC(=O)NCCOCCOCCOCCC(=O)N[C@@H](CC(=O)O)C(=O)N4CCC[C@H]4C(=O)N[C@H](C(=O)N=[S@](C)(=O)Cc4cc5nc(c4)O[C@@H](C)CCCCOc4cc(F)ccc4-c4cc(ncc4F)N5)C(C)C)cc3)c2)c1 (relative stereo) [Compound 55],0.011 to 0.1,> 1,0.011 to 0.1,> 1,0.011 to 0.1,> 1,≤ 0.01,> 1
CCCNC(=O)Nc1cccc(S(=O)(=O)Nc2cccc([C@@H](CC(=O)O)NC(=O)Nc3ccc(NC(=O)NCCOCCOCCOCCC(=O)N[C@@H](CC(=O)O)C(=O)N4CCC[C@H]4C(=O)N[C@H](C(=O)N=[S@](C)(=O)Cc4cc5nc(c4)O[C@H](C)CCCCOc4cc(F)ccc4-c4cc(ncc4F)N5)C(C)C)cc3)c2)c1 (relative stereo) [Compound 56],0.011 to 0.1,> 1,0.011 to 0.1,> 1,0.011 to 0.1,> 1,0.011 to 0.1,0.1 to 1
